We go through 3 molecules from US20250222066A1, “COMPOSITIONS AND METHODS OF TREATING, PREVENTING OR INHIBITING A FACULTATIVE ANAEROBE INFECTION” (UNIVERSITY OF UTAH RESEARCH FOUNDATION, priority 2022, published 2025).

For assay [1], the system named is S. aureus ATCC 6538 biofilms. Put plainly: CDC biofilm reactor coupons, 24 h antibiotic treatment, bioburden by serial dilution plating. The class given is cell-based. The conditions noted are these: 24 h treatment, FIG. 1 and FIG. 7. How it is done: (§1) For determining the broad-spectrum utility of metronidazole, respective bacterial species were grown into stationary biofilms using a 2- or 3-day species-specific growth protocol in a CDC biofilm reactor on standard 0.5 in polycarbonate coupons. Each reactor holds up to 24 coupons/samples with adherent biofilms. Bacterial bioburden, represented as colony forming units (CFUs), from five reactor samples/coupons (n=5) were quantified by first dispersing the bacterial biofilms in 2 ml of PBS by standardized vortex-sonication technique and serial-dilution plating. Importantly, this quantification technique provides bioburden data with logarithmic sensitivity. […] The gray shaded regions represent standard deviations.
(§2) Three groups of 5 coupons/samples (n=5) were placed into 2 ml treatments either containing 0.5-1 mg/ml of gentamicin, metronidazole, or combinations thereof (in CAMHB) and incubated for 24 h at 37° C. Importantly, the total antibiotic concentration (mg/ml) was fixed for each sample to enable assessment of compound synergy.
After the 24 h treatment, the bacteria adhered to coupons were quantified by rinsing the samples very gently in excess PBS followed by vortexing and sonicating to disperse the biofilm in 2 ml PBS and subsequent serial-dilution plating. The bioburden of the adhered bacteria is represented by the blue bars in FIG. 1. […] Broth bioburden is represented by the red bars in FIG. 1.
Twelve hypoxia activated prodrugs from three categories were tested: nitroimidazoles (same class as metronidazole), nitrofurans, and anti-tumor agents.
To test each compound, the contents of an entire CDC-biofilm reactor (24 coupons/biofilm samples) were used (see FIG. 2 and FIG. 3). […] Using the methods described above, 4 reactor samples/coupons served as reactor controls. The remaining 20 samples/coupons were split into 4 treatment groups of 5 samples each (n=5).
For testing against S. aureus biofilms, the compounds were prepared at a concentration of 1 mM in CAMHB; coupons were treated in 2 ml for 24 h. Compounds were intentionally prepared in units of molarity rather than the more common weight/volume ratios of clinicians.
This choice was made for two reasons.
Two of the treatment groups were the same for each test: one in 1 mM nafcillin (a β-lactam antibiotic) and a second in 1 mM gentamicin. […] For comparison for most compounds 1 mM ranges from ˜0.15-0.5 mg/ml, 1 or 2 Log 2 dilutions below tests in FIG. 1. […] The other compounds were tested at the same concentrations.
Quantification of the post-treatment residual bioburden was performed by dispersing biofilm bacteria into the 2 ml treatments with its constituent bacteria by vortexing, and sonicating. […] The pelleted bacteria were resuspended and measured by the serial dilution plating technique. Thus, the values presented in FIGS. 2, 3 and 4 represent the cumulative change in bioburden from the surface-attached biofilms and bacteria in the treatments.

The test system of a further assay is E. coli. Put plainly: Minimum inhibitory concentration (MIC) assay, planktonic bacteria. It is filed as cell-based, Escherichia coli. To be noted: Escherichia coli, for 1:1 combinations MIC is the sum of both compounds. How it is done:
(§3) For comparison to these biofilm tests with adjunctive metronidazole, the MIC was determined for each organism and each compound tested.

The subject of the next assay is A. baumannii. Described as above. It is filed as cell-based. The conditions noted are these: Acinetobacter baumannii; aerobic; for 1:1 combinations MIC is the sum of both compounds. As to the method: as §3
The subject of a further assay is MRSA USA300. The description is as above. It is filed as cell-based. The conditions noted are these: Staphylococcus aureus, for 1:1 combinations MIC is the sum of both compounds. How it is done:
as §3

A further assay has as its system P. aeruginosa. The description is as above. It is filed as cell-based. To be noted: Pseudomonas aeruginosa, for 1:1 combinations MIC is the sum of both compounds. As to the method: as §3
Another assay deals with S. epidermidis. The description is as above. It is filed as cell-based, Staphylococcus epidermidis. To be noted: Staphylococcus epidermidis, for 1:1 combinations MIC is the sum of both compounds. As to the method:
as §2, §3

A further assay relates to K. pneumoniae. Described as above. It is filed as cell-based, Klebsiella pneumoniae. The conditions noted are these: for MIC: Klebsiella pneumoniae, for 1:1 combinations MIC is the sum of both compounds. How it is done: as §3
A further assay concerns S. aureus. The assay is described as above. It is filed as cell-based. The conditions noted are these: for MIC: Staphylococcus aureus.
Source text: Shortcomings of clinical antibiotic susceptibility assays. The antibiotic-susceptibility assays used to guide clinical treatment and prophylaxis rely on actively-dividing planktonic bacteria (Williams, D. L. & Costerton, J. W. J Biomed Mat Res B 100, 1163-1169 (2011)). Among the assays performed by clinical reference laboratories are the minimum inhibitory concentration (MIC), and disk diffusion (Kirby-Bauer) assays. The ubiquity of these assays is owed to the fact that they are high throughput, relatively quick to perform, repeatable, and have short turnaround times. They inform clinicians regarding which antibiotic are applicable for a given infection from a simple site swab, blood, or aspirate sample. […] Thus, when a compound, such as metronidazole performs poorly in an MIC assay, a physician would be thoroughly dissuaded from using it. Likewise, in drug-development, a high MIC value would exclude potentially useful anti-biofilm agents from candidate drug libraries. […] Using orthodox clinical methodology, there would be no basis to administer metronidazole in the treatment of a S. aureus-related infections, despite its exceptional efficacy against bacterial biofilms of the same isolates. The MIC assay fails to provide any information about susceptibility profiles of bacteria that reside in the biofilm phenotype.
as §3

Assay [2] deals with biofilms of a range of Gram-negative and Gram-positive organisms. Briefly: CDC biofilm reactor test of metronidazole combinations across species (FIG. 1). The class given is cell-based. The conditions noted are these: paired with gentamicin or levofloxacin (S. epidermidis); 0.5-1 mg/ml total, 24 h. How it is done:
as §1, §2
After the 24 h treatment, the bacteria adhered to coupons were quantified by rinsing the samples very gently in excess PBS followed by vortexing and sonicating to disperse the biofilm in 2 ml PBS and subsequent serial-dilution plating. The bioburden of the adhered bacteria is represented by the blue bars in FIG. 1. […]

In a further assay the test system is S. aureus biofilm. Put plainly: Live/dead imaging of metronidazole-treated biofilm. To be noted: 0.5 mg/ml metronidazole, 24 h. It is filed as cell-based. From the text: FIGS. 9A-B show biofilm histochemical staining. […] Staining of pimonidazole adducts in pimonidazole-treated S. aureus biofilms is localized in the core; the deepest location (darker brown region indicated by arrow) adjacent to the collagen substrate. Regions where oxygen tension is insufficiently low for pimonidazole adduct formation is shown (arrow head; lighter brown region). […] Viable bacteria (green) resided on the biofilm surface, where oxygen and nutrients were readily available.
Next, a time-lapse confocal imaging paired with live-dead staining was used to observe the location of metronidazole-induced cell death.

Assay [3] has as its system S. aureus ATCC 6538 biofilms. Briefly: Hypoxyprobe immunohistochemical staining of pimonidazole adducts in biofilms. The class given is cell-based. To be noted: 0.06 mg/ml pimonidazole, 5 h. From the text:
Further, the Hypoxyprobe™ immunohistochemistry kit was used to identify regions of the biofilm that might be hypoxic, and to identify regions with nitro-reductase activity. At the core of the Hypoxyprobe™ kit is the use of the nitroimidazole pimonidazole; it is used to treat, usually animal tissues, but in this case bacterial tissues (biofilms) while in homeostasis prior to fixation, embedment, sectioning, and staining (see structures FIGS. 5E-F). The nitro group on pimonidazole, like that on metronidazole, is reductively activated in hypoxic mammalian tissues by reaction with catalytic nitro-reductase enzymes; it then forms indiscriminate adducts with inter-cellular thiol groups. In the presence of oxygen, the reduced nitro group in pimonidazole (and metronidazole) rapidly reacts with oxygen thereby cycling back to the parent compound. The Hypoxyprobe™ kit contains a primary antibody against these intercellular pimonidazole adducts. Successful immunohistochemical staining of pimonidazole adducts in the biofilm core indicates two important things. First, it would show nitro-reductase activity in the biofilm, and second it would be direct evidence for […] oxygen tension for a nitroimidazole prodrug radical to persist and react with critical cellular components. […]

Another assay relates to S. aureus biofilms. Put plainly: Radical-scavenger edaravone protection of biofilms from metronidazole (FIG. 6). It is filed as cell-based. To be noted: 0-2 mg/ml edaravone with 0.25 mg/ml nafcillin and 4 mg/ml metronidazole, 24 h. As to the method: . S. aureus biofilms grown using a CDC biofilm reactor and treated with 2 ml solutions of CAMHB in 0.25 mg/ml nafcillin (serving as a bacteriostatic agent) and 4 mg/ml metronidazole (with herein established activity against biofilms) and the indicated concentration of the potent radical-scavenger edaravone (0-2 mg/ml). After treatment, the biofilm coupons were removed from the treatment broth, rinsed and the bioburden quantified using a method of vortexing, sonicating, and serial dilution plating.
In one experiment, S. aureus biofilms were subjected to a bacteriostatic solution of nafcillin (0.25 mg/ml) and an aggressive dose of metronidazole (4 mg/ml). The coupons were divided evenly into 5 groups (n=8) which were treated with serial concentrations of the potent radical scavenger edaravone ranging from 0-2 mg/ml. […]. In a second experiment, biofilms were treated with a small sublethal dose of the nitroimidazole pimonidazole (0.06 mg/ml). Like the other nitroimidazoles, pimonidazole is reductively activated in hypoxic cells by a nitro-reductase enzyme. In hypoxia, the reduced compound indiscriminately forms adducts with cellular components including adducts with thiol groups which can be recognized with a primary antibody by immunohistochemical staining (FIG. 5A and FIG. 9A) (Masaki, Y. et al. PLOS One 11, e0161639 (2016)). […]

[4] abbreviates: anaerobic, read-out: Anaerobic MIC.

Entries after “also recorded” stand apart in the source; their conditions may differ. Read-outs that look alike come from different tables or passages of the source.

Turning to `Cc1ncc([N+](=O)[O-])n1CCO` [Metronidazole, metronidazole], the antibiofilm activity result in assay [1] is recorded as “much greater antibiofilm activity compared to traditional antibiotics; also recorded: graded concentration-dependent effect against biofilms; also recorded: killed the otherwise difficult-to-kill persister cells embedded within the biofilm”. Also, the MIC with E. coli (aerobic, read-out: Aerobic MIC) was 1250 µg/mL; in the assay with E. coli (setting [4]), 156 µg/mL; with A. baumannii, > 2500 µg/mL; with MRSA USA300 (aerobic, read-out: Aerobic MIC), 1250 µg/mL; in the assay on MRSA USA300 (setting [4]), 1250 µg/mL; in the assay on P. aeruginosa (aerobic, read-out: Aerobic MIC), > 2500 µg/mL. Also, the MIC was > 2500 µg/mL in the assay on P. aeruginosa (setting [4]); 312 µg/mL with S. epidermidis (aerobic, read-out: Aerobic MIC); 625 µg/mL with S. epidermidis (setting [4]); > 2500 µg/mL in the assay on K. pneumoniae (aerobic, read-out: Aerobic MIC); 1250 µg/mL in the assay on K. pneumoniae (setting [4]); 2500 µg/mL with S. aureus (aerobic, for 1:1 combinations MIC is the sum of both compounds, read-out: Aerobic MIC). Also, the MIC is > 2500 µg/mL in the assay on S. aureus (anaerobic, for 1:1 combinations MIC is the sum of both compounds, read-out: Anaerobic MIC) and > 2500 µg/mL in the assay with S. aureus (isolate used in biofilm tests, read-out: MIC against S. aureus). Moreover, the “reduction in MIC, anaerobic versus aerobic” value in the assay on K. pneumoniae (log-phase planktonic bacteria) is reported as “two”. In the assay on S. aureus (FIG. 7 legend), the “effect against planktonic bacteria as indicated by the MIC” value is “little effect against planktonic bacteria”. Further, the “synergistic kill against biofilms” value in assay [2] is recorded as “strong synergistic kill”. For the same molecule, the “location of dead and viable bacteria by live/dead staining” value in the assay on S. aureus biofilm was “an abundance of dead and dying bacteria in the biofilm core contrasted with viable bacteria on the biofilm surface; also recorded: Dead cells (red) resided deep within the biofilm core”.
With `O=[N+]([O-])c1nccn1CC(O)CN1CCCCC1` (stereo not drawn) [pimonidazole], in assay [3], the “location of pimonidazole adducts (nitro-reductase activity, hypoxia)” value is on record as “adducts banded throughout the deepest parts of the biofilm core”.
For the molecule `CC1=NN(c2ccccc2)C(=O)C1` [edaravone], in the assay with S. aureus biofilms, the “effect on the killing of biofilms by metronidazole” value is “neutralized the killing-effect of metronidazole in a dose dependent manner; also recorded: proportionally negates the killing power of metronidazole; also recorded: proportionally negate killing effects of metronidazole”.
